# Article PMC7034854, “Inter-species variation in monovalent anion substrate selectivity and inhibitor sensitivity in the sodium iodide symporter (NIS)” (PLoS ONE, 2020)
# T1: sodium iodide symporter (zNIS) (Danio rerio, UniProt A0AC58G7K6)
# T1 construct: gene slc5a5; N-terminally HA-tagged NIS (601 residues, NP_001082860.1) expressed in HeLa cells
# T1 sequence (A0AC58G7K6 1-601): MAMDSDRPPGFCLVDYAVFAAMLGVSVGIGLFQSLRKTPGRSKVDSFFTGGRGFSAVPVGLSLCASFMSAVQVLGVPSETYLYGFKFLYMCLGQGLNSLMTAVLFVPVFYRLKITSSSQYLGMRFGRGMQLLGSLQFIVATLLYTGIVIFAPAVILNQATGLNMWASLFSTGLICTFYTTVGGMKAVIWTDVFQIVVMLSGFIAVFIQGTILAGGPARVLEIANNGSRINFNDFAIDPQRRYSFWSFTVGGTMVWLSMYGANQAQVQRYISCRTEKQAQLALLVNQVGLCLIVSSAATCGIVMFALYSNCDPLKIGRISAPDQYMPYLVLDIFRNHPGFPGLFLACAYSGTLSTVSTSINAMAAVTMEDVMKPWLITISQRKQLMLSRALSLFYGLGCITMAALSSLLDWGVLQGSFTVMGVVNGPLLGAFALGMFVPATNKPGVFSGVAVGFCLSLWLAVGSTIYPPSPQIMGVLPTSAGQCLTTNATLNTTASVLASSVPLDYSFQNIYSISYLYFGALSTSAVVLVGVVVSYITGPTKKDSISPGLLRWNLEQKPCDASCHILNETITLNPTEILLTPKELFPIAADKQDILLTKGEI
# T2: sodium iodide symporter (hNIS) (Homo sapiens, UniProt Q92911)
# T2 construct: gene SLC5A5; N-terminally HA-tagged NIS (643 residues) expressed in HeLa cells
# T2 sequence (Q92911 1-643): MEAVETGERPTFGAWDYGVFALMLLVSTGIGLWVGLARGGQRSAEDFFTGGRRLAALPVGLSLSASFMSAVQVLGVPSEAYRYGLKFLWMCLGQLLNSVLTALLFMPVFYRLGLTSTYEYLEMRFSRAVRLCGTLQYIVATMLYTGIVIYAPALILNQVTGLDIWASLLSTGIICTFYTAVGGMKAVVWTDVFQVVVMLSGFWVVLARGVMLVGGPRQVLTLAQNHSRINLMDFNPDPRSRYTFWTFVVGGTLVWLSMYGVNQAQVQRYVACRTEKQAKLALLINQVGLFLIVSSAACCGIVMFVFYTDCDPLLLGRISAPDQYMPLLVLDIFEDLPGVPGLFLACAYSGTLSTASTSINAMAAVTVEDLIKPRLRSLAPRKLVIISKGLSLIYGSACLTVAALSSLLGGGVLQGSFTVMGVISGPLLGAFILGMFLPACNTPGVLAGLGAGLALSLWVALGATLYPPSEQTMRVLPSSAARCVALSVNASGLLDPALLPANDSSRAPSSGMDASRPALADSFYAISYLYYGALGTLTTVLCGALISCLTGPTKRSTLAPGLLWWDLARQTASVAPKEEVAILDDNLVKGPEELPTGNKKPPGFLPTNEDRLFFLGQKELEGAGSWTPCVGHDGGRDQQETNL
# T3: sodium iodide symporter (wNIS) (Balaenoptera acutorostrata, UniProt A0A384B8D1)
# T3 construct: gene SLC5A5; N-terminally HA-tagged NIS (642 residues, XP_007195539.1) expressed in HeLa cells
# T3 sequence (A0A384B8D1 1-642): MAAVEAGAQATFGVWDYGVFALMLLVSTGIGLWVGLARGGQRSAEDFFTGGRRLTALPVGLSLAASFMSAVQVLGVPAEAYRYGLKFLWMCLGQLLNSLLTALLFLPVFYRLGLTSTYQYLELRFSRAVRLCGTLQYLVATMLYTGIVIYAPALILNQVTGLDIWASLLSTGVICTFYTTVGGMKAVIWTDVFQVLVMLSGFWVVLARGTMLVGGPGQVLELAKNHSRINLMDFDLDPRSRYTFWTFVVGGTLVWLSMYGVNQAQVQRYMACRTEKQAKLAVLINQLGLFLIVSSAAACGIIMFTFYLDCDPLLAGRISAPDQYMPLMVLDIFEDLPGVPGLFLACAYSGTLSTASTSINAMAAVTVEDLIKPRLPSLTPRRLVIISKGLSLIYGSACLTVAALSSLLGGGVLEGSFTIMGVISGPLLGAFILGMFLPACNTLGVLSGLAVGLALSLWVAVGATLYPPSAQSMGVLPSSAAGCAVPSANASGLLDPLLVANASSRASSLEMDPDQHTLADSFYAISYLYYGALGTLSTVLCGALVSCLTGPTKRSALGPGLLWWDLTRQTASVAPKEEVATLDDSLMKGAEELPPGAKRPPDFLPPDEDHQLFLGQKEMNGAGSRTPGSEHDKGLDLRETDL
# B1: sodium iodide symporter (wNIS) (Balaenoptera acutorostrata) (protein)
# chain: T3 sequence (A0A384B8D1 1-642)
# notes: N-terminally HA-tagged NIS (642 residues, XP_007195539.1) expressed in HeLa cells
# B2: sodium iodide symporter (zNIS) (Danio rerio) (protein)
# chain: T1 sequence (A0AC58G7K6 1-601)
# notes: N-terminally HA-tagged NIS (601 residues, NP_001082860.1) expressed in HeLa cells
# B3: sodium iodide symporter (hNIS) (Homo sapiens) (protein)
# chain: T2 sequence (Q92911 1-643)
# notes: N-terminally HA-tagged NIS (643 residues) expressed in HeLa cells
# What was measured:
# [1] = target: T1, sodium iodide symporter (zNIS); experiment: […]- uptake inhibition in transduced HeLa cells; assay type: cell-based
# [2] = target: T2, sodium iodide symporter (hNIS); experiment: […]- uptake inhibition in transduced HeLa cells; assay type: cell-based
# [3] = target: T3, sodium iodide symporter (wNIS); experiment: […]- uptake inhibition in transduced HeLa cells; assay type: cell-based
# [4] = substrate: I; experiment: iodide uptake kinetics (Km) in transduced HeLa cells; assay type: cell-based, Balaenoptera acutorostrata; conditions: Na+
# [5] = substrate: I; experiment: as above; assay type: cell-based, Danio rerio; conditions: Na+
# Text: iodide uptake kinetics (Km) in transduced HeLa cells on sodium iodide symporter (zNIS) | zNIS binds to iodide with the greatest affinity of the proteins examined in this study
# [6] = substrate: I; experiment: as above; assay type: cell-based, Homo sapiens; conditions: Na+
molecule,measurement,setting,value
[O-][Cl+3]([O-])([O-])O [perchlorate],IC50,[1],81 nM
same,IC50,[2],1570 nM
same,IC50,[3],4.6 µM
B1,Km,[4],30.04 µM
B2,Km,[5],3.688 µM
B3,Km,[6],12.01 µM
